Measurements from PMC10882719 (Frontiers in Neuroscience, 2024).

Tests used:
[1] = system: frontal cortex gene expression; assay: RNA-seq differential gene expression, frontal cortex; format: in vivo, rat; details: 10 mg/kg IP, 8 h; for Number of genes significantly regulated: vs vehicle
[2] = system: myelin basic protein (MBP); assay: Immunohistochemistry of myelin basic protein in brain; format: in vivo, rat; details: 10 mg/kg IP, 24 h, vs vehicle
Experimental: The in-life portion of the study was conducted at WuXi Apptec (Cranbury, NJ). Sectioning and staining of brains took place at Neuroscience Associates (NSA, Knoxville, TN). […] Brains were post-fixed in PFA before shipment to NSA for processing and staining. Hemisected brains were mounted, sectioned and stained using standard protocols with myelin-basic protein primary antibody (MBP SMI-99, 1:5000, Biolegend, San Diego, CA) and anti-mouse biotinylated secondary antibody (BA-2001, Vector Laboratories, Newark, CA). Slides were imaged using a Huron Digital Pathology TissueScope LE120 whole slide scanning system. 20x objective was used with a 0.4um/pixel resolution.

5HT2A receptor = molecular target: T1, 5HT2A receptor (Homo sapiens, UniProt P28223); assay: GPCRmax screen, antagonist mode, 5HT2A; format: cell-based; details: HTR2A
T1 construct: β-galactosidase enzyme fragment (enzyme fragment complementation reporter); host or cells: PathHunter cell lines
Experimental: Studies were performed at Eurofins DiscoverX Corporation (Fremont, CA) using the GPCRmax assay according to the manufacturer’s protocols. […] Activity greater than 30% typically indicates agonist activity and inhibition greater than 50% indicates antagonist activity. This assay uses enzyme fragment complementation with […] as the functional reporter. When a GPCR is activated, […] is recruited and the reporter is detectable. GPCRmax offers a high-throughput screen of 168 GPCRs for agonist or antagonist activity. Briefly, PathHunter cell lines were propagated, seeded into 384-well microplates and incubated at 37°C. […] Microplates were read following signal generation with a PerkinElmer Envision™ instrument for chemiluminescent signal detection. Compound activity was analyzed using CBIS data analysis suite (ChemInnovation, CA) to determine raw values (RLU). For agonist mode assay, percentage activity was calculated using the following formula: % Activity =100% × (mean RLU of test sample - mean RLU of vehicle control) / (mean MAX control ligand - mean RLU of vehicle control). For antagonist mode assay, percentage inhibition was calculated using the following formula: % Inhibition =100% × (1 - (mean RLU of test sample - mean RLU of vehicle control) / (mean RLU of EC80 control - mean RLU of vehicle control)).

PTSD patients (CAPS-5) = details: open-label, 14 PTSD patients; ref Jones et al., 2023; cited from earlier work
[3] = molecular target: T2, NE uptake (NET), rat brain synaptosomes (Rattus norvegicus, UniProt Q63380); assay: Uptake inhibition assay, [3H]NE, rat brain synaptosomes; format: biochemical
T2 construct: Rat brain synaptosomes were isolated from Sprague Dawley rats (200-250 g); from tissue; host or cells: rat brain synaptosomes (Sprague Dawley)

[4] = molecular target: T3, DA release (DAT), rat brain synaptosomes (Rattus norvegicus, UniProt P23977); assay: Release assay, [3H]DA, superfused rat brain synaptosomes; format: biochemical
T3 construct: Rat brain synaptosomes were isolated from Sprague Dawley rats (200-250 g); from tissue; host or cells: rat brain synaptosomes (Sprague Dawley)
Experimental: (§1) Test compounds and synaptosomes were prepared as described for uptake inhibition assays. Synaptosomes treated with [^3H] 5-HT, [^3H] DA or [^3H] NE were loaded onto filter chambers containing GF/C filters and placed in a superfusion system. Oxygenated Krebs buffer was perfused through the chambers at a rate of 1.5 mL/min at 35°C using either an 8-channel or a 12-channel peristaltic pump. Trapped air bubbles were removed from the filters prior to collecting fractions to ensure an even flow over the synaptosomal bed. After a superfusion period of 45 min, 2 basal fractions were collected followed by 6 fractions following the addition of the test drug. […] After the addition of scintillation cocktail, radioactivity was counted using a Wallac® TriLux 1,450 MicroBeta counter. […] Scintillation cocktail was added, and the filters counted to determine residual radioactivity. Drug-evoked release of neurotransmitter was calculated by subtracting the average of the two basal fractions (collected prior to the drug addition), from the four fractions collected in the presence of drug. The drug-evoked release was then expressed as a percentage of the basal release. Potassium-evoked release was calculated by subtracting the average of two fractions collected prior to the addition of high KCl buffer from that in the two fractions following addition of high KCl buffer. […]

[5] = molecular target: T4, 5HT release (SERT), rat brain synaptosomes (Rattus norvegicus, UniProt P31652); assay: Release assay, [3H]5-HT, superfused rat brain synaptosomes; format: biochemical
T4 construct: Rat brain synaptosomes were isolated from Sprague Dawley rats (200-250 g); from tissue; host or cells: rat brain synaptosomes (Sprague Dawley)
Experimental: as §1

[6] = molecular target: T5, 5HT reuptake (SERT), rat brain synaptosomes (Rattus norvegicus, UniProt P31652); assay: Uptake inhibition assay, [3H]5-HT, rat brain synaptosomes; format: biochemical
T5 construct: Rat brain synaptosomes were isolated from Sprague Dawley rats (200-250 g); from tissue; host or cells: rat brain synaptosomes (Sprague Dawley)

[7] = molecular target: T6, DA uptake (DAT), rat brain synaptosomes (Rattus norvegicus, UniProt P23977); assay: Uptake inhibition assay, [3H]DA, rat brain synaptosomes; format: biochemical
T6 construct: Rat brain synaptosomes were isolated from Sprague Dawley rats (200-250 g); from tissue; host or cells: rat brain synaptosomes (Sprague Dawley)

[8] = system: immobility in the forced swim test; parameters: method as in Warner-Schmidt et al., 2022; details: rats, ref Warner-Schmidt et al., 2022, cited from earlier work
[9] = molecular target: T7, NE release (NET), rat brain synaptosomes (Rattus norvegicus, UniProt Q63380); assay: Release assay, [3H]NE, superfused rat brain synaptosomes; format: biochemical
T7 construct: Rat brain synaptosomes were isolated from Sprague Dawley rats (200-250 g); from tissue; host or cells: rat brain synaptosomes (Sprague Dawley)
Experimental: as §1

T1 sequence (P28223 whole entry, the tested form may be a part): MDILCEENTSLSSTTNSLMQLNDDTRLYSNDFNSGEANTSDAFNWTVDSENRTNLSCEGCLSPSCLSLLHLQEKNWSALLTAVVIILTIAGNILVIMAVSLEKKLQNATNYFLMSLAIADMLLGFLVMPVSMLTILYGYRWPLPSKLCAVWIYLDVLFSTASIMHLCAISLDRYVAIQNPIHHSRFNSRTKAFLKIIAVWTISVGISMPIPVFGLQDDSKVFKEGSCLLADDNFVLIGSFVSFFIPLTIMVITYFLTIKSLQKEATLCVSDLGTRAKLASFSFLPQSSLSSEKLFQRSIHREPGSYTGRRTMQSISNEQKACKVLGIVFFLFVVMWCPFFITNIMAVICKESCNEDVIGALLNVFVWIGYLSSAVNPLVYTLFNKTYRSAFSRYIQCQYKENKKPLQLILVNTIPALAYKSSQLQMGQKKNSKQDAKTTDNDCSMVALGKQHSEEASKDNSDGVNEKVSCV
T3 sequence (P23977 whole entry, the tested form may be a part): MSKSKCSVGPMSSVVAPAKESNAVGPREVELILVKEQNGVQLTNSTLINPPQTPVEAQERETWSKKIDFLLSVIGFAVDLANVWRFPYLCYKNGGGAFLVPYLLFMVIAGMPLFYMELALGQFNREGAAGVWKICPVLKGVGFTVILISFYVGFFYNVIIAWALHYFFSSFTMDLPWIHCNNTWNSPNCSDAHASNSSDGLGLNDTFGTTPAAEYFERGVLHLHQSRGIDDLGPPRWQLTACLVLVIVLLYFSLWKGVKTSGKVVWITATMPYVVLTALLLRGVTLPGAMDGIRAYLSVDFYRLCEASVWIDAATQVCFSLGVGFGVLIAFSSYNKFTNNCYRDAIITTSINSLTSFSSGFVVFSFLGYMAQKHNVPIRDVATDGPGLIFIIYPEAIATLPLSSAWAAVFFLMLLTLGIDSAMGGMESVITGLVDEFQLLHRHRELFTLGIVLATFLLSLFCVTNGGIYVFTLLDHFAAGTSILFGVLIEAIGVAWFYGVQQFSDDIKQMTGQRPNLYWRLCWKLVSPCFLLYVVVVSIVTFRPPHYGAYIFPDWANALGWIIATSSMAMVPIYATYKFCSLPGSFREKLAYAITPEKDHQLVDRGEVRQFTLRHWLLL
T2 sequence (Q63380 1-617): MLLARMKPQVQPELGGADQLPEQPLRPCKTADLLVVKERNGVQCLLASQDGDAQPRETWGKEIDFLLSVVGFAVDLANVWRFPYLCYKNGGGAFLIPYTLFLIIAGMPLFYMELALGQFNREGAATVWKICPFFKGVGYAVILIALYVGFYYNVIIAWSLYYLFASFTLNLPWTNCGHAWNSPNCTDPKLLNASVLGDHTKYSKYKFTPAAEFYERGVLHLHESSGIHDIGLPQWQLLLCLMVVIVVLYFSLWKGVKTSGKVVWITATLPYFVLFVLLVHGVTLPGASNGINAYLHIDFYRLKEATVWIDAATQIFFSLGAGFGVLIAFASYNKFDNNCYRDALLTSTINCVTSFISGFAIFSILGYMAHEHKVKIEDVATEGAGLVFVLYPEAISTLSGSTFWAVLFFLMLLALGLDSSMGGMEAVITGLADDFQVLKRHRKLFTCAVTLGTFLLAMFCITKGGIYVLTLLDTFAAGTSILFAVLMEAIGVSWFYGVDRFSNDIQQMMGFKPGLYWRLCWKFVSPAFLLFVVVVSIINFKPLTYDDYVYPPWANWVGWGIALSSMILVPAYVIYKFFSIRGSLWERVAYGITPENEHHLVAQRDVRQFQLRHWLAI
T7 sequence (Q63380 1-617): as above
T4 sequence (P31652 whole entry, the tested form may be a part): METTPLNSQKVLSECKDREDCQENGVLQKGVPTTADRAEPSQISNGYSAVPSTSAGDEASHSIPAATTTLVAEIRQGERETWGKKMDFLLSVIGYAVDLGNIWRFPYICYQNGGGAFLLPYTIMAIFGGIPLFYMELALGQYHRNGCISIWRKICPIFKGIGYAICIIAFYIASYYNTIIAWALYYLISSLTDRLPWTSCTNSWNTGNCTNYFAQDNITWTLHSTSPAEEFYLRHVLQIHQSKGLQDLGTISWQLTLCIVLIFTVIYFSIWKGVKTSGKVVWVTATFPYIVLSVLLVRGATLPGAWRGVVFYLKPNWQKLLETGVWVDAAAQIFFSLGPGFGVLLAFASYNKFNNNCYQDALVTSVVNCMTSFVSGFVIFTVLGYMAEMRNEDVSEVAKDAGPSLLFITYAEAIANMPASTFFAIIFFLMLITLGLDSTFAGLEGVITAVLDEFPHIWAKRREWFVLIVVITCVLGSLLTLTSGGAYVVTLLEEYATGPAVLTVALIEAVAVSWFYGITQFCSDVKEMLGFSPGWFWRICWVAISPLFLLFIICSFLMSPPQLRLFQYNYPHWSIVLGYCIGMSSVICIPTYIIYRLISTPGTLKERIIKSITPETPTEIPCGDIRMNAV
T5 sequence (P31652 whole entry): as the sequence (P31652 whole entry, the tested form may be a part) above
T6 sequence (P23977 whole entry): as the sequence (P23977 whole entry, the tested form may be a part) above

| Compound | More genes significantly regulated compared to methylone ([1]; frontal cortex) | Number of genes significantly regulated ([1]; frontal cortex) [genes] | MBP expression, basolateral nucleus of the amygdala [2] | MBP expression, central nucleus of the amygdala [2] | MBP expression, cortex (control region) [2] | % Antagonist Activity (5HT2A receptor; 1 uM) [%] | % Antagonist Activity (5HT2A receptor; 10 uM) [%] | Induction of BDNF, increase compared with controls ([1]; RNA-seq) | Adverse events (PTSD patients (CAPS-5)) | Reduction in CAPS-5 (PTSD patients (CAPS-5)) [point] | IC50 [3] [nM] | EC50 [4] [µM] | Amount of DA released compared to MDMA ([4]; rat brain synaptosomes, Figure 1C) | EC50 [5] [nM] | IC50 [6] [nM] | IC50 [7] [nM] | Reduction in immobility in the forced swim test ([8]; 30 min after a single human equivalent dose of 100–150 mg) | Duration of reduction in immobility post-dose ([8]; single dose) | EC50 [9] [nM] |
| --- | --- | --- | --- | --- | --- | --- | --- | --- | --- | --- | --- | --- | --- | --- | --- | --- | --- | --- | --- |
| CNC(C)Cc1ccc2c(c1)OCO2 (stereo not shown) [MDMA, 3,4-Methylenedioxy methamphetamine, reference compound] | ~ 72% | 825 | significant reduction | significant reduction | No change | 5.1 | 3 |  |  |  |  |  |  |  |  |  |  |  |  |
| CNC(C)C(=O)c1ccc2c(c1)OCO2 (stereo not shown) [methylone] |  | 480 | significant reduction | significant reduction | No change | -7.9 | -2.7 | ~ 60% | no significant adverse events | 36.2 | 130 | 4.79 | Less DA was released | 620 | 430 | 2300 | 95–98% | at least 72 h | 330 |
